According to US20250366467A1, “METHODS FOR FLUID RESUSCITATION OF AN ORGAN DONOR” (VIRGINIA COMMONWEALTH UNIVERSITY, priority 2022, published 2025):

Tested on: brain dead adult beagle dogs
Details: dog, in vivo
Description: Care and Use Committee. Adult beagle dogs (8-10 kg) of either sex (n=11) were initially anesthetized with propofol (10 mg/kg, intravenous or IV). After intubation, anesthesia was maintained with isoflurane at 1-2% on mechanical ventilation with FiO2 at 30%, ventilation rate of 12, which was adjusted as necessary to achieve a PaCO2 goal of 38-42 mmHg. A circulating water-warming pad was used to maintain normothermia throughout the experiment. The femoral artery was cannulated for arterial blood sampling and for measurement of arterial blood pressure and heart rate. The external jugular vein was also accessed and cannulated for administration of fluids and necessary medications.
Explosive brain death was induced in anesthetized adult Beagle dogs by inflating a balloon catheter (16 Fr. Foley) that was placed under the skull from a trephination burr hole. The balloon was inflated from 0-8 ml volume over about 5 minutes. which ultimately causes the brain stem to herniate through the foramen at the base of the skull. This causes rapid brain death that is characterized by the occurrence of a Cushing reflex, a negative apnea reflex, and fixed and dilated pupils. This methodology has previously been described by Mangino, et al.
The animals were assigned to either the control group (n=5) or the PEG-20k group (n=6) within the first hour. Both groups were treated in a standard fashion. […]

Question: For polyethylene glycol-20k [PEG-20k], which Hb level trend is on record?
Answer: Its Hb level trend is “trended lower”.
